Patent US12616687B2, “Treatment of viral infection, disease or disorder using a selective sir agonist” (Prilenia Neurotherapeutics Ltd., priority 2020, dated 2026)
Where “and” joins values, the source holds several entries; their conditions need not be identical. Identical values can stand only once. Entries after “also recorded” stand apart in the source; their conditions may differ. Like-named read-outs stand apart in the source and are kept apart here.

Assays:
S1R [1] = biological target: T1, S1R (Homo sapiens, UniProt Q99720); details: cited from earlier work
T1 sequence (Q99720 whole entry): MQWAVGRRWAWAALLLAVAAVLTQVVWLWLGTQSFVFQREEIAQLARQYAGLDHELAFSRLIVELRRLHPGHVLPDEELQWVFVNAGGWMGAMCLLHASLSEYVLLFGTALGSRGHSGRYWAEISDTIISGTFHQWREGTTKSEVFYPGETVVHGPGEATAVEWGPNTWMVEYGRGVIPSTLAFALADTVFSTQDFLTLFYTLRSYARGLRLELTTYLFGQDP

S2R = S2R (Homo sapiens, UniProt Q5BJF2); details: cited from earlier work
Sequence of S2R (Q5BJF2 whole entry): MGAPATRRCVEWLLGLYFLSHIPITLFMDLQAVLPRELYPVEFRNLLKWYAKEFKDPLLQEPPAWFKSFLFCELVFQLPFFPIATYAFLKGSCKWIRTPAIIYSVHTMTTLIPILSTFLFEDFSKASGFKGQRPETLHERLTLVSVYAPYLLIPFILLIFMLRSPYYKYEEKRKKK

SARS-CoV-2 = details: viral titer assay; cited from earlier work
[2] = at the concentration showing anti-viral activity; cited from earlier work
eIF2α-phosphorylation = experiment: eIF2α-phosphorylation, ER stress induced by thapsigargin; assay type: cell-based; details: 2 μg/ml thapsigargin
Description: HEK293 cells transfected with Htt20Q-mCherry (wt HTT) were treated with 2 μg/ml thapsigargin to induce ER stress.

ATF4 = tested on: ATF4
Description: (§1) Cells expressing myc-Htt96Q (mutant Htt) or myc-Htt20Q (wt Htt) were treated with pridopidine 3 uM. Immunoblots were reacted with anti-ATF4 (FIG. 7A), anti-CHOP (FIG. 7B) and anti-GADD34 (FIG. 7C), quantified and normalized with anti-actin or anti-tubulin as loading controls.

CHOP = tested on: CHOP
Description: as §1

GADD34 = tested on: GADD34
Description: as §1

ATF6 = details: myc-Htt96Q cells
Description: Cells expressing myc-Htt96Q (mutant Htt) were treated with pridopidine 0.03 and 3 μM. Immunoblots were reacted with anti-ATF6 quantified and normalized with anti-tubulin as loading controls.

[3] = tested on: YAC128 HD striatal neurons; experiment: mitochondrial ROS (H2O2, MitoPY1) in YAC128 HD striatal neurons; assay type: cell-based, mouse; details: Ant A 2 μM
Description: YAC128 is a mouse model of Huntington's Disease (HD), Striatal neurons from wt or YAC128 were treated or not with 1 μM pridopidine and incubated with MitoPY1 fluorescence probe. The mitochondrial respiration inhibitor Antimycin A (Ant A, 2 μM) was used to induce release of Mitochondrial H2O2 and oxidative stress. Mitochondrial H2O2 was recorded in spinning disk confocal before and after administration of Ant A (n=4, considering ˜20 cells/condition).
Striatal neurons from YAC128 HD mice were treated with 1 μM pridopidine prior to induction of ROS production by the mitochondrial respiration inhibitor antimycin A (Ant A).

[4] = tested on: Striatal WT and YAC128 (HD) neurons; details: 24 h; for mitochondrial membrane potential (MMP) in HD (YAC128) neurons: 0.1 and 1 μM
Excerpt: The role of S1R in regulating mitochondrial membrane potential (MMP) was studied in striatal neurons from wild-type (WT) control and YAC128 HD mice.

[5] = tested on: lymphoblasts from HD patients; experiment: mitochondrial membrane potential (TMRE) in control and S1R-KD HD lymphoblasts; assay type: cell-based, human
Description: Cells were treated with pridopidine 5 μM, then challenged with 0.1 mM H2O2.

S1R [6] = biological target: T1, S1R
XBP1s = details: myc-Htt96Q cells, 3 μM (p<0.01)
[7] = tested on: interferon-stimulated genes (ISGs)
[8] = HEK293, Htt96Q-induced ER stress
[9] = pridopidine 5 μM, 24 h, 0.1 mM H2O2

CCN(CCO)CCCC(C)Nc1ccnc2cc(Cl)ccc12 (stereo not drawn) [hydroxychloroquine]
Ki (S1R [1]): 200 nM
Ki (S2R): 800 nM
concentration at which anti-viral activity was demonstrated (SARS-CoV-2): ~2 µM
reduction in cell viability / cell death [2]: ~30%

CCCN1CCC(c2cccc(S(C)(=O)=O)c2)CC1 [pridopidine, 4-[3-(methylsulfonyl)phenyl]-1-propyl-piperidine]
eIF2α-p (ratio of eIF2α-P/eIF2α) (eIF2α-phosphorylation; HEK293, wt HTT, pridopidine 3 μM, 8 hours): caused a reduction; also recorded: reduces p-eIF2α levels
ATF4 protein level after treatment (ATF4; [8]): normal wt levels
reduction of ATF4 levels (ATF4; myc-Htt96Q cells, 3 μM (p<0.05)): ~4.5 fold
CHOP protein level after treatment (CHOP; [8]): normal wt levels
reduction of CHOP levels (CHOP; myc-Htt96Q cells, 3 μM): ~2 fold
GADD-34 protein level after treatment (GADD34; [8]): normal wt levels
reduction of GADD-34 levels (GADD34; myc-Htt96Q cells, 3 μM (p<0.01)): ~2.5 fold
reduction of ATF6 (ATF6; 0.03 μM): ~10%
reduction of ATF6 (ATF6; 3 μM): 35% and ~30%
mitochondrial ROS (H2O2) production after Ant A ([3]; YAC128 striatal neurons, pridopidine 1 μM): robust and significant reduction of ROS production by mitochondria back to normal levels; also recorded: inhibits H2O2 release and oxidative stress
mitochondrial membrane potential (MMP) in WT neurons ([4]; 0.1 μM): trend towards increasing MMP
mitochondrial membrane potential (MMP) in WT neurons ([4]; 1 μM): significant increase
mitochondrial membrane potential (MMP) in HD (YAC128) neurons [4]: significant increase
mitochondrial membrane potential (MMP) in HD (YAC128) neurons ([4]; listed as Pridopidine): significantly restores the impaired MMP
mitochondrial membrane potential (MMP) in wt neurons ([4]; concentration not stated (FIG. 11 legend)): enhances MMP
MMP after H2O2 challenge in S1R KD cells [5, 9]: abolished and not
MMP after H2O2 challenge in S1R+/+ cells [5, 9]: completely restored
fold higher affinity for the S1R vs the S2R (S1R [6]): 95 fold
reduction in XBP1s mRNA levels (XBP1s): 25%
reduction of expression of ISGs (IFIT1, EIF2AK2, IRF7 indexed together) [7]: 30-50%

CCCCCC[C@H]1C(=O)O[C@H](C)[C@H](NC(=O)c2cccc(NC=O)c2O)C(=O)O[C@@H](C)[C@@H]1OC(=O)CC(C)C [Ant A, Antimycin A, reference compound]
increase of mitochondrial H2O2 / ROS production ([3]; untreated YAC128 neurons): ~2 fold

O=C(CCCN1CCC(O)(c2ccc(Cl)cc2)CC1)c1ccc(F)cc1 [Haloperidol]
reduction in cell viability / cell death [2]: ~30%

C/C=C(/C)C(=O)O[C@H]1C(C)=C2[C@H]([C@@H]1OC(=O)CCCCCCC)[C@@](C)(OC(C)=O)C[C@H](OC(=O)CCC)[C@@]1(O)[C@H]2OC(=O)[C@@]1(C)O [thapsigargin, reference compound]
increase in phosphorylated eIF2α (eIF2α-p) (eIF2α-phosphorylation; HEK293, myc-Htt20Q): 70%

CN1CCC[C@@H]1CCO[C@](C)(c1ccccc1)c1ccc(Cl)cc1 [Clemastine]
reduction in cell viability / cell death [2]: ~40%

OO [Compound H2O2, H2O2, reference compound]
reduction of MMP in S1R+/+ cells ([5]; 0.1 mM H2O2, HD lymphoblasts): 25%
reduction of MMP in S1R KD cells ([5]; 0.1 mM H2O2, HD lymphoblasts, S1R knocked down ~83%): 75%
